{
  "source": "patent US8153773B2",
  "about": "“Synthesis and use of anti-reverse phosphorothioate analogs of the messenger RNA cap” (Board of Supervisors of Louisiana State University and …, priority 2007, dated 2012)",
  "key": {"hDcp2": {"target": "hDcp2 (Homo sapiens, UniProt Q8IU60)", "experiment": "In vitro RNA decapping assay with recombinant hDcp2", "type": "biochemical", "conditions": "for hydrolysis of capped oligonucleotide by hDcp2: capped 32P-labeled short RNA, recombinant hDcp2, anion exchange HPLC (FIG. 6); for Dcp2 susceptibility: radioactivity in pGp* as a percentage of total cap radioactivity, capped oligonucleotides digested with hDcp2", "procedure": "Dcp2 activity was measured with capped 48-nt oligonucleotides as substrates, a truncated form of luciferase mRNA (48 nucleotides). GST-hDcp2 was expressed in Escherichia coli and purified as described by Z. Wang et al., “The hDcp2 protein is a mammalian mRNA decapping enzyme,” Proc. Natl. Acad. Sci. U.S.A., vol. 99, pp. 12663-12668 (2002). Capped oligonucleotides were first subjected to digestion with GST-hDcp2 at 37° C. for 2 h in decapping buffer (10 mM Tris-HCl, pH 7.5, 100 mM potassium acetate, 2 mM magnesium acetate, 0.5 mM MnCl2, 2 mM dithiothreitol, and 0.1 mM spermine). See C. Piccirillo et al., “Functional characterization of the mammalian mRNA decapping enzyme hDcp2,” RNA, vol. 9, pp. 1138-1147 (2003). The reaction mixture was then extracted once with an equal volume of phenol and twice with chloroform, and RNA was precipitated with ethanol. Products of the decapping reaction were further digested with a cocktail of ribonucleases (RiboShredder; Epicentre) at 37° C. for 1 h. The products were resolved by anion-exchange HPLC on a 4.6×250-mm Partisil 10SAX/25 column (Whatman). The gradient consisted of water for 1 min, a linear gradient to 112 mM KH2PO4, pH 4.5, for 20 min, a linear gradient of 112-450 mM KH2PO4 for 15 min, a linear gradient of 450 mM to 1.5 M KH2PO4 for 15 min, and isocratic elution at 1.5 M of KH2PO4 for 9 min, all at a flow rate 1 ml/min.\nWe tested oligonucleotides capped with either of S-ARCAs for hydrolysis by recombinant hDcp2 to test whether mRNA capped with the various diastereomers of m2^7,2′-OGpppsG and m2^7,2′-OGppspG would differ in their sensitivity to cleavage by Dcp1/Dcp2. See generally Z. Wang et al., “The hDcp2 protein is a mammalian mRNA decapping enzyme,” Proc. Natl. Acad. Sci. U.S.A., vol. 99, pp. 12663-12668 (2002), and Z. Wang et al., “An mRNA Stability Complex Functions with Poly(A)-Binding Protein To Stabilize mRNA In Vitro”, Mol. Cell. Biol., vol. 19, pp. 4552-4560 (1999). Cap analogs used were initially unlabeled, so to follow the products of the digestion reaction we synthesized capped oligonucleotides in the presence of [α-^32P]GTP and a DNA template in which G was the first ribonucleotide specified after the promoter. The oligonucleotides capped with either of the S-ARCAs were subjected to Dcp2 digestion in vitro, after which the products were further digested with a cocktail of ribonucleases (RiboShredder from Epicenter). Any nucleotide on the 5′ side of a G residue acquired a ^32P-labeled 3′-phosphate group after ribonuclease digestion by nearest-neighbor transfer. Anion exchange chromatography was then used to resolve the labeled 3′-nucleoside monophosphates (3′-NMP*), at internal positions in the RNA, from labeled 5′-terminal products (FIG. 6). The latter comprise p3 Gp* derived from uncapped transcripts and m2^7,2′-OGp3 Gp* (when m2^7,2′-OGp3G was used), or pGp* resulting from capped RNA resistant or nonresistant to enzymatic cleavage, respectively. All cap analogs used were ARCAs, which ensured that they were incorporated into RNA exclusively in the correct orientation. This further guaranteed that only one 5′-terminal product (m2^7,2′-OGp3 Gp*) was observed upon ribonuclease treatment. Uncapped RNA is not a substrate for Dcp2, which explains why p3 Gp* product was observed after Dcp2 digestion.\nSee E. Grudzien et al., “Differential inhibition of mRNA degradation pathways by novel cap analogs,” J. Biol. Chem., vol. 281, pp. 1857-1867 (2006)."}, "DcpS": {"target": "T1, DcpS (Caenorhabditis elegans, UniProt G5EFS4)", "T1 sequence (G5EFS4 1-311)": "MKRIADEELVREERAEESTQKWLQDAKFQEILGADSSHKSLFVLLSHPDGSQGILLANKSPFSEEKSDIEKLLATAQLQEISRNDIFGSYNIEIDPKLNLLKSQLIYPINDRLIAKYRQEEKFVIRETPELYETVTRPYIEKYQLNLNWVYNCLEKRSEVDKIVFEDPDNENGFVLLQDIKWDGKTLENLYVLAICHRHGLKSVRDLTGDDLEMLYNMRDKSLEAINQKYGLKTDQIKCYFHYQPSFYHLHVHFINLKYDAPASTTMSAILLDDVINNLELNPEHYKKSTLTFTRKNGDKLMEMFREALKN", "experiment": "Enzymatic hydrolysis by C. elegans DcpS", "type": "biochemical", "design": "key: the analogs assigned as resistant remained completely undigested under the applied conditions; the analogs assigned as hydrolyzed were hydrolyzed by DcpS with efficiency comparable to the respective unmodified parent compound", "conditions": "conditions giving complete degradation of unmodified parent within 40-90 min, RP HPLC", "procedure": "Human and nematode DcpS were expressed in Escherichia coli according to the procedures described previously (L. S. Cohen et al., “Nematode m7 GpppG and m3(2,2,7)GpppG decapping: activities in Ascaris embryos and characterization of C. elegans scavenger DcpS,” RNA, vol. 10, pp. 1609-1624 (2004)). Both proteins were stored at −80° C. in 20 mM Tris buffer, pH 7.5, containing 50 mM KCl, 0.2 mM EDTA, 1 mM DTT, 0.5 mM PMSF, and 20% glycerol. An appropriate cap analog at 1 mM concentration was treated with 5.0 or 7.0 μl of DcpS (from human or C. elegans, respectively) in 500 μl of 50 mM TRIS buffer, pH=7.9, containing 20 mM of MgCl2 and 60 mM of (NH4)2SO4 at 37° C. for 60-90 min. Every 15-20 min a 100 μl sample was collected from the reaction mixture and deactivated by incubation in 90° C. for 3 min. Collected samples were analyzed without further treatment by analytical RP HPLC using a linear gradient of methanol in 0.1 M KH2PO4, pH=6.0, from 0-50% within 15 min and UV-detection at 260 nm.\nThe new series of S-analogs were subjected to in vitro enzymatic hydrolysis catalyzed by DcpS from both human and C. elegans sources. In all experiments, the corresponding unmodified cap analog was used as a positive control, i.e., m^7GpppG for non-ARCA S-analogs and m2^7,2′-OGpppG for S-ARCAs. The amount of DcpS enzyme was optimized to provide complete degradation of the control substrate within 40-90 min. The samples collected from reaction mixtures at various time intervals were analyzed by RP HPLC (as described in Materials and Methods).\nIn Table 4, cap analogs at 4 μM concentration were subjected to enzymatic digestion by DcpS in conditions leading to complete degradation of the unmodified parent compound (i.e. m^7GpppG for non-ARCA S-analogs and m2^7,2′-OGpppG for ARCAs) within 40-90 min. Samples collected from reaction mixtures at various time intervals were analysed by RP HPLC with UV detection at 260 nm as described in Materials and Methods. […] The result was unchanged even if the reaction time was extended to 24 h, various amounts of enzyme were used, and composition of the reaction buffer was modified."}},
  "note": "“Also recorded” adds a separate entry of the source.",
  "data": [
    {"compound": "CO[C@@H]1[C@H](O)[C@@H](COP(=O)(O)OP(=O)([O-])OP(=O)(O)OC[C@H]2O[C@@H](n3cnc4c(=O)[nH]c(N)nc43)[C@H](O)[C@@H]2O)O[C@H]1n1c[n+](C)c2c(O)nc(N)nc21", "note": "[m2^7,2′-OGpppG, reference compound]", "values": [
      {"measurement": "hydrolysis of capped oligonucleotide by hDcp2", "setting": "hDcp2", "value": "completely digested"},
      {"measurement": "Dcp2 susceptibility", "setting": "hDcp2", "value": 100, "unit": "%"},
      {"measurement": "Resistance to enzymatic hydrolysis by DcpS (from C. elegans)", "setting": "DcpS", "value": "hydrolyzed"}
    ]},
    {"compound": "m2^7,2′-OGpppsG (D1) [Compound 4a]", "values": [
      {"measurement": "Dcp2 susceptibility", "setting": "hDcp2", "value": 96, "unit": "%"},
      {"measurement": "Resistance to enzymatic hydrolysis by DcpS (from C. elegans)", "setting": "DcpS", "value": "hydrolyzed"}
    ]},
    {"compound": "m2^7,2′-OGpppsG (D2) [Compound 4b]", "values": [
      {"measurement": "Dcp2 susceptibility", "setting": "hDcp2", "value": 98, "unit": "%"},
      {"measurement": "Resistance to enzymatic hydrolysis by DcpS (from C. elegans)", "setting": "DcpS", "value": "hydrolyzed"}
    ]},
    {"compound": "m2^7,2′-OGppspG (D1) [Compound 5a]", "values": [
      {"measurement": "hydrolysis of capped oligonucleotide by hDcp2", "setting": "hDcp2", "value": "much more susceptible to Dcp2 than its D2 counterpart"},
      {"measurement": "Dcp2 susceptibility", "setting": "hDcp2", "value": 71, "unit": "%"},
      {"measurement": "Resistance to enzymatic hydrolysis by DcpS (from C. elegans)", "setting": "DcpS", "value": "hydrolyzed"}
    ]},
    {"compound": "m2^7,2′-OGppspG (D2) [Compound 5b]", "values": [
      {"measurement": "hydrolysis of capped oligonucleotide by hDcp2", "setting": "hDcp2", "value": "stabilized RNA against hDcp2 hydrolysis; also recorded: resistant to hDcp2 hydrolysis"},
      {"measurement": "Dcp2 susceptibility", "setting": "hDcp2", "value": 6, "unit": "%"},
      {"measurement": "Resistance to enzymatic hydrolysis by DcpS (from C. elegans)", "setting": "DcpS", "value": "hydrolyzed"}
    ]},
    {"compound": "m2^7,2′-OGpsppG (D1) [Compound 6a]", "values": [
      {"measurement": "Dcp2 susceptibility", "setting": "hDcp2", "value": 84, "unit": "%"},
      {"measurement": "Resistance to enzymatic hydrolysis by DcpS (from C. elegans)", "setting": "DcpS", "value": "resistant"}
    ]},
    {"compound": "m2^7,2′-OGpsppG (D2) [Compound 6b]", "values": [
      {"measurement": "Dcp2 susceptibility", "setting": "hDcp2", "value": 91, "unit": "%"},
      {"measurement": "Resistance to enzymatic hydrolysis by DcpS (from C. elegans)", "setting": "DcpS", "value": "resistant"}
    ]}
  ]
}
